Experimental data taken from patent US5212157A, “Enzyme inhibitors” (Bio-Mega, Inc., priority 1989, dated 1993).
Where a name gives a salt, the structure may show the parent alone. Numbered stars: 1 amine (or outer) side, 2 acyl side, 3 side chain; on linkers, the order of the positions; unused ones are H or OH. Square brackets hold non-standard residues; d marks the D form. Peptide text beside a SMILES is read from it. Ahppa(3S,4S) = O=C(C[C@H](O)[C@H](Cc1ccccc1)N[*:1])[*:2]; ACHPA = O=C(C[C@H](O)[C@H](CC1CCCCC1)N[*:1])[*:2]; Tic = O=C(O)[C@@H]1Cc2ccccc2CN1

The molecules below were run against T1, HIV protease (Human immunodeficiency virus type 1 group M subtype B, UniProt P04585) (assay: Recombinant HIV Protease HPLC Assay). Details: recombinant HIV protease expressed in E. coli; substrate VSFNFPQITL-NH2; pH 6 buffer; 37° C. for 1 h; HPLC quantification.
T1 construct: HIV protease was expressed in E. coli and purified to ca. 50% purity; made in house; host or cells: E. coli
Type: biochemical
Excerpt: The procedure is based on the capacity of the test compound to inhibit enzymatic cleavage by HIV protease of a decapeptide (the substrate) having an amino acid sequence which includes a known HIV protease cleavage site of the HIV polyprotein; see H. G. Krausslich et al., Proc. Natl. Acad. Sci. USA, 86, 807 (1989). Details of this assay together with the results obtained for exemplified peptides of formula 1 are described in the examples hereinafter.
Recombinant HIV Protease HPLC Assay
Enzyme: HIV protease was expressed in E. coli and purified to ca. 50% purity according to the procedure described by H.-G. Krausslich et al., Proc. Natl. Acad. Sci. U.S.A., 86, 807 (1989). The enzyme was stored as 10 μL aliquots at -70° C. The aliquots were diluted to 1/10th of the original concentration with buffer prior to use (enzyme working solution).
Substrate: VSFNFPQITL-NH2, MW 1164, see Krausslich et al., supra, was used as substrate. The substrate was made into 10 mM stock in DMSO and stored at -20° C. Prior to use, the stock was diluted with buffer to give a 400 μM solution substrate working solution.
Buffer: 2-(4-Morpholino)ethanesulfonic acid (50 mM), NaCl (25 mM) and EDTA (5 mM) was dissolved in distilled H2 O (90 mL) and the solution was adjusted to pH6 with concentrated aqueous NaOH. The latter solution was diluted to 100 mL with H2 O to give the buffer.
Procedure: (1) The test compound was dissolved in DMSO to give a solution having 40× the final concentration of the test compound in the assay mixture (see step 2) so that the amount of DMSO in the assay mixture was 5% (v,v) or less. (2) The assay mixture was prepared by mixing 10 μL of the substrate working solution, 0.5 μL of the solution of the test compound in DMSO from step 1, and 10 μL of the enzyme working solution. (3) The assay mixture was incubated at 37° C. for 1h. (4) The reaction was quenched by adding 100 μL of 2% aqueous TFA. (5) The substrate and products (i.e. VSFNF and PQITL-NH2) were separated by subjecting 100 μL of the quenched assay mixture to HPLC using Nucleosil ® C18 column with a 26-min linear gradient at 1 mL/min from 11% to 70% acetonitrile in H2 O with 0.05% aqueous TFA. Elution was monitored at 210 nm. (6) A control which was the assay mixture without the test compound, was subjected simultaneously to steps 3 to 5.
Inhibition Studies: Cleavage products and remaining parent substrate were quantified by either peak height or by integration of the appropriate HPLC peaks. Substrate conversion was calculated using the following relationship: [formula] Enzyme inhibition of the test compound was calculated as follows: [formula]
The concentration of the test compound which causes a 50% inhibition of the HIV-protease, i.e. the IC50, was determined as follows: The percent inhibition of the enzyme was determined for a minimum of three different concentrations of the test compound. Thereafter, the IC50 was determined graphically by plotting the percent inhibition of the substrate against the concentration of the test compound.
`CC(C)C[C@H](NC(=O)C[C@H](O)[C@H](CC1CCCCC1)NC(=O)[C@H](C)NC(=O)[C@@H]1Cc2ccccc2CN1)C(=O)N[C@@H](Cc1ccccc1)C(=O)O` [Example 14, THIQ-Ala-ACHPA-Leu-Phe-OH.HCl] (H-[Tic]A[ACHPA]LF-OH) showed an IC50 of 200 nM.
`CC(C)C[C@H](NC(=O)C[C@H](O)[C@H](Cc1ccccc1)NC(=O)[C@@H](NC(=O)[C@@H]1Cc2ccccc2CN1)C(C)C)C(=O)N[C@@H](Cc1ccccc1)C(N)=O` [Example 16, THIQ-Val-AHPPA-Leu-Phe-NH2.HCl] (H-[Tic]V[Ahppa(3S,4S)]LF-NH2) showed an IC50 of 25 nM.
“N-[N-[N-[N-[3-(1,2,3,4-Tetrahydroisoquinolyl)carbonyl]-L-alanyl]-4(S)-amino-3(S)-hydroxy-5-cyclohexylpentanoyl]-L-leucyl]-L-phenylalaninamide Hydrochloride [Example 1]” gave an IC50 of 90 nM.
Work on “THIQ-Val-ACHPA-Ala-Phe-NH2.HCl [Example 7]” yielded an IC50 of 17 nM.
With “THIQ-Val-Cha.psi.[CH2 NH]Leu-Leu-Phe-NH2.HCl [Example 20]” the IC50 was 80 nM.
